Consider 27 compounds from publication PMC8286840, “Identifying SARS-CoV-2 antiviral compounds by screening for small molecule inhibitors of Nsp3 papain-like protease” (Biochemical Journal, 2021).

Test [1] addresses T1, SARS-CoV-2 PLpro (nsp3 1564–1878) (Severe acute respiratory syndrome coronavirus 2, UniProt P0DTD1). Briefly: biochemical. On the set-up: FRET-quenched peptide (Pro3) cleavage by PLpro, 10 min pre-incubation, slope over 20 min, normalised to no-compound control. As to conditions: high concentration screen, read-out: % of control remaining.
Test [2] addresses T1, SARS-CoV-2 PLpro (nsp3 1564–1878). Put plainly: biochemical. More on the design: FRET-quenched peptide (Pro3) cleavage by PLpro, 10 min pre-incubation, slope over 20 min, normalised to no-compound control. Conditions: low concentration screen, read-out: % of control remaining.

Counter-ions that a name gives are not always drawn. Like-named read-outs stand apart in the source and are kept apart here.

In the case of `N=C(N)SCCc1ccc(OCc2ccc([N+](=O)[O-])cc2)cc1` [KB-R7943], in test [1] (Well no.=5823), the remaining activity at 3.75 µM was determined as 106%. In addition, the remaining activity at 1.25 µM in test [2] (Well no.=5823) stood at 105%.

For the compound `O=S(=O)(NCCSSCCNS(=O)(=O)c1cc(Cl)ccc1Cl)c1cc(Cl)ccc1Cl` [KC7F2], the remaining activity at 3.75 µM in test [1] (Well no.=8580) was 102%. In test [2] (Well no.=8580), the remaining activity at 1.25 µM worked out at 107%.

For `NC(=O)c1ccc(-c2cc(-c3ccc([N+](=O)[O-])cc3)nc(-c3ccco3)c2)cc1` [KJ Pyr 9], the remaining activity at 3.75 µM in test [1] (Well no.=6346) came to 101%. In addition, the remaining activity at 1.25 µM in test [2] (Well no.=6346) was 99.3%.

Take `CN([C@@H](Cc1ccc(OS(=O)(=O)c2cccc3cnccc23)cc1)C(=O)N1CCN(c2ccccc2)CC1)S(=O)(=O)c1cccc2cnccc12` [KN-62]: the results for the remaining activity at 3.75 µM in test [1] (Well no.=670) and in test [1] (Well no.=2308) were 95.8% and 99%, respectively. In addition, the remaining activity at 1.25 µM in test [2] (Well no.=670) was determined as 97.4%; in test [2] (Well no.=2308), 99.3%.

For `COc1ccc(S(=O)(=O)Nc2ccccc2CN(C)C/C=C/c2ccc(Cl)cc2)cc1` [KN-92], the remaining activity at 3.75 µM in test [1] (Well no.=2483) came to 94.2%. Moreover, the remaining activity at 1.25 µM in test [2] (Well no.=2483) came out at 96.3%.

Consider `COc1ccc(S(=O)(=O)N(CCO)c2ccccc2CN(C)C/C=C/c2ccc(Cl)cc2)cc1` [KN-93], for which the remaining activity at 3.75 µM in test [1] (Well no.=2556) was determined as 102%. In test [2] (Well no.=2556), the remaining activity at 1.25 µM is 103%.

`O=CN1CC/C(=C\c2ccc3c(c2)OCO3)C1=O` [KNK437]: the remaining activity at 3.75 µM in test [1] (Well no.=8768) stood at 89.6%. The remaining activity at 1.25 µM in test [2] (Well no.=8768) was 92.1%.

Take `O=C(Nc1ccccc1C(=O)Nc1ccc(CCO)cc1)c1ccc([N+](=O)[O-])cc1` [KS-176]: in test [1] (Well no.=5911), the remaining activity at 3.75 µM was found to be 102%. For the same compound, the remaining activity at 1.25 µM in test [2] (Well no.=5911) is 101%.

Take `CCCCCCOC(=O)[C@]1(O)C[C@@H]2O[C@@]1(C)n1c3ccccc3c3c4c(c5c6ccccc6n2c5c31)C(=O)NC4` [KT5720]: the remaining activity at 3.75 µM in test [1] (Well no.=2481) was determined as 109%. The remaining activity at 1.25 µM in test [2] (Well no.=2481) was 105%.

Consider `COc1ccc(-c2ccc3c(N4CCOCC4)nc(N4C[C@@H](C)O[C@@H](C)C4)nc3n2)cc1CO` [KU0063794], for which the remaining activity at 3.75 µM in test [1] (Well no.=2899) was found to be 103%. Besides, the remaining activity at 1.25 µM in test [2] (Well no.=2899) was determined as 105%.

In the case of `O=c1cc(-c2cccc3c2Sc2ccccc2S3)oc(N2CCOCC2)c1` [KU 55933 - 2-(4-Morpholinyl)-6-(1-thianthrenyl)-4H-pyran-4-one], in test [1] (Well no.=2438), the remaining activity at 3.75 µM came to 103%. Also, in test [2] (Well no.=2438), the remaining activity at 1.25 µM was determined as 101%.

As to `C[C@@H]1CN(CC(=O)Nc2ccc3c(c2)Cc2cccc(-c4cc(=O)cc(N5CCOCC5)o4)c2S3)C[C@H](C)O1` [KU-60019], in test [1] (Well no.=5299), the remaining activity at 3.75 µM is 85.8%. The remaining activity at 1.25 µM in test [2] (Well no.=5299) turned out to be 93.8%.

For the compound `O=C(c1ccc(/C=C/c2n[nH]c3ccccc23)cc1)N1CCNCC1` [KW 2449], the remaining activity at 3.75 µM in test [1] (Well no.=5108) was found to be 107%. Besides, the remaining activity at 1.25 µM in test [2] (Well no.=5108) amounted to 102%.

On to `CCc1c(O)cc(O)c(C(=O)c2ccc(OCCN3CCOCC3)c(OC)c2)c1CC(=O)N(CCOC)CCOC` [KW-2478], for which the remaining activity at 3.75 µM in test [1] (Well no.=5342) was determined as 94.5%. The remaining activity at 1.25 µM in test [2] (Well no.=5342) worked out at 93.8%.

With `O=C(Cc1ccc(-c2ccc(OCCN3CCOCC3)cc2)cn1)NCc1ccccc1` [KX2-391], in test [1] (Well no.=5350), the remaining activity at 3.75 µM amounted to 94.3%. For the same compound, the remaining activity at 1.25 µM in test [2] (Well no.=5350) stood at 94.7%.

On to `COc1ccc(CCC(=O)Nc2nc3ccc(Cl)cc3s2)cc1OC` [KY02111], for which, in test [1] (Well no.=4782), the remaining activity at 3.75 µM came out at 98.2%. Further, the remaining activity at 1.25 µM in test [2] (Well no.=4782) was 105%.

In the case of `C[C@@H]1O[C@@H](O[C@H]2[C@H](Oc3cc(O)c4c(=O)c(O)c(-c5ccc(O)cc5)oc4c3)O[C@H](CO)[C@@H](O)[C@@H]2O)[C@H](O)[C@H](O)[C@H]1O` [Kaempferol-7-neohesperidoside], in test [1] (Well no.=3307), the remaining activity at 3.75 µM came out at 103%. The remaining activity at 1.25 µM in test [2] (Well no.=3307) is 102%.

For `O=c1c(O)c(-c2ccc(O)cc2)oc2cc(O)cc(O)c12` [Kaempferol], the remaining activity at 3.75 µM is 90.3% in test [1] (Well no.=3426) and 109% in test [1] (Well no.=6246). Also, the remaining activity at 1.25 µM in test [2] (Well no.=3426) came out at 89.4%; in test [2] (Well no.=6246), 105%.

Take `CC(=O)OC[C@@]1(O)CC23CC[C@@H]4c5ccoc5C=C[C@@]4(C)[C@@H]2CC[C@@H]1C3` [Kahweol Acetate]: in test [1] (Well no.=3489), the remaining activity at 3.75 µM was 103%. Also, the remaining activity at 1.25 µM in test [2] (Well no.=3489) stood at 102%.

Turning to `C=C(C)[C@H]1CN[C@H](C(=O)O)[C@H]1CC(=O)O` [Kainic acid], the remaining activity at 3.75 µM worked out at 105% in test [1] (Well no.=829), 104% in test [1] (Well no.=3369) and 102% in test [1] (Well no.=7792). The remaining activity at 1.25 µM in test [2] (Well no.=829) was determined as 106%; in test [2] (Well no.=7792), 105%.

For the compound `NC[C@H]1O[C@H](O[C@H]2[C@H](O)[C@@H](O[C@H]3O[C@H](CO)[C@@H](O)[C@H](N)[C@H]3O)[C@H](N)C[C@@H]2N)[C@H](O)[C@@H](O)[C@@H]1O` [Kanamycin sulfate], the remaining activity at 3.75 µM in test [1] (Well no.=3428) is 96.2%. The remaining activity at 1.25 µM in test [2] (Well no.=3428) was determined as 97.3%.

Regarding `CCN1C[C@]2(C)CC[C@H](O)[C@]34C1[C@@H](C[C@H]23)[C@@]1(O)C[C@H](OC)[C@H]2C[C@@H]4[C@@H]1[C@H]2O` [Karakoline], the remaining activity at 3.75 µM in test [1] (Well no.=831) is 99.5%; in test [1] (Well no.=3157) it was 103%. Further, the remaining activity at 1.25 µM in test [2] (Well no.=831) amounted to 102%; in test [2] (Well no.=3157), 111%.

Consider `O=C(O)c1ccccc1C(=O)Nc1ccc(-c2ccccc2)cc1` [Kartogenin], for which, in test [1] (Well no.=5620), the remaining activity at 3.75 µM was 96.3%. Besides, the remaining activity at 1.25 µM in test [2] (Well no.=5620) is 91.3%.

Regarding `O=C1Cc2c([nH]c3ccc(Br)cc23)-c2ccccc2N1` [Kenpaullone], the remaining activity at 3.75 µM amounted to 102% in test [1] (Well no.=783) and 100% in test [1] (Well no.=2554). Moreover, the remaining activity at 1.25 µM was determined as 102% in test [2] (Well no.=783) and 104% in test [2] (Well no.=2554).

Take `COc1cc(Nc2ncc3ccn(-c4cccc(CCC#N)c4)c3n2)cc(OC)c1OC` [Keratinocyte Differentiation Inducer]: in test [1] (Well no.=2379), the remaining activity at 3.75 µM is 103%. The remaining activity at 1.25 µM in test [2] (Well no.=2379) is 101%.

Regarding `O=C(c1ccc(F)cc1)C1CCN(CCn2c(=O)[nH]c3ccccc3c2=O)CC1` [Ketanserin (tartrate)], the remaining activity at 3.75 µM in test [1] (Well no.=6519) amounted to 103%. In addition, in test [2] (Well no.=6519), the remaining activity at 1.25 µM was determined as 100%.

As to `O=C(c1ccc(F)cc1)C1CCN(CCn2c(=O)[nH]c3ccccc3c2=O)CC1` [Ketanserin tartrate], the remaining activity at 3.75 µM in test [1] (Well no.=1515) came to 95.4%. For the same compound, in test [2] (Well no.=1515), the remaining activity at 1.25 µM amounted to 93.9%.
